Assay results from PubChem BioAssay (NCI).
Where “and” joins values, the source holds several entries; their conditions need not be identical. Equal entries are not always repeated.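 Following 48 hours of exposure in 96-well plates, responses at five concentrations were used to interpolate endpoints linearly. Here, GI50 denotes the concentration required for 50% inhibition of growth. TGI denotes the concentration required for complete inhibition of growth.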

Columns and labels:
Assay in all cases: NCI tumour cell line growth inhibition, 48 h
[1] = system: MDA-MB-435
[2] = system: HL-60(TB) leukemia
[3] = system: SNB-19 CNS
[4] = system: NCI-H23 lung
[5] = system: SF-295 CNS
[6] = system: SK-OV-3 ovarian
[7] = system: SK-MEL-2 melanoma
[8] = system: LOX IMVI melanoma
[9] = system: UACC-257 melanoma
[10] = system: UACC-62 melanoma

Compound | GI50 [1] | TGI [1] | GI50 [2] | TGI [2] | GI50 [3] | TGI [3] | GI50 [4] | TGI [4] | GI50 [5] | TGI [5] | GI50 [6] | TGI [6] | GI50 [7] | TGI [7] | GI50 [8] | TGI [8] | GI50 [9] | TGI [9] | GI50 [10] | TGI [10]
CCN1C(=O)NC(=O)C(C)(N2C(=O)c3c(F)c(F)c(F)c(F)c3C2=O)C1=O (stereo not drawn) | 2.96 µM | 10.6 µM | 1.61 µM | 3.49 µM | 9.49 µM | 24.9 µM | 3.92 µM | 17.7 µM | 9.67 µM | 23.9 µM | 10.1 µM | 24.6 µM | 3.84 µM | 21.6 µM | 1.87 µM | 4 µM | 4.26 µM | 14 µM | 2.75 µM | 9.57 µM
CN(C)c1ncnc2c1nnn2C1OC(CO)C(O)C1O (stereo not drawn) | 0.234 µM | > 100 µM | 0.239 µM | > 100 µM | 1.06 µM | > 100 µM | 0.399 µM | > 63.2 µM | 0.221 µM | > 58.3 µM | 0.0413 µM | 22.5 µM | 0.104 µM | 0.773 µM | 0.156 µM | > 100 µM | 0.515 µM | > 100 µM | 0.246 µM | 1.55 µM
Cn1c(O)c(C(/C=C/c2ccccc2)=NCCN=C(/C=C/c2ccccc2)c2c(O)n(C)c(=O)n(C)c2=O)c(=O)n(C)c1=O | 18 µM | > 50 µM | 9.14 µM | 27.4 µM | 21.6 µM | > 50 µM | 15 µM | > 50 µM | 16.2 µM | > 50 µM | 19.9 µM | > 50 µM | 27.3 µM | > 50 µM | 17.1 µM | > 50 µM | 23.5 µM | > 50 µM | 19.2 µM | > 50 µM
Cn1cc(C2=C(c3cccnc3)C(=O)NC2=O)c2ccccc21 | > 25 µM | > 25 µM | > 25 µM | > 25 µM | > 25 µM | > 25 µM | > 25 µM | > 25 µM | 8.13 µM | > 25 µM | > 22.9 µM | > 25 µM | > 13 µM | 25 µM | > 20.9 µM | > 25 µM | > 25 µM | > 25 µM | > 25 µM | > 25 µM
C=CC(C)(O)/C=C/C=C(\C)C(CC1OC1(C)C)OC(=O)/C(C)=C\C (stereo not drawn) |  | > 100 µM |  | > 100 µM |  | > 100 µM |  | > 100 µM |  | > 100 µM |  | > 100 µM |  | > 100 µM |  | > 100 µM |  | > 100 µM |  | > 100 µM
COC1CCC(O)C(/C=C/[N+](=O)[O-])C1 (stereo not drawn) |  | 3.67 µM |  | 5.29 µM |  | 23.6 µM |  | 16.6 µM |  | 23.9 µM |  | 22.6 µM |  | 23.1 µM |  | 3.05 µM |  | 5.48 µM |  | 19.3 µM
CN=C(NC#N)NCCSCc1nc[nH]c1C |  | > 100 µM |  | > 100 µM |  | > 100 µM |  | > 100 µM |  | > 100 µM |  | > 100 µM |  | > 100 µM |  | > 100 µM |  | > 100 µM |  | > 100 µM
c1ccc(-c2cc(C3CO3)c3ccccc3n2)cc1 (stereo not drawn) |  | 35.5 µM |  | 63.7 µM |  | 95.5 µM |  | 37.5 µM |  | > 100 µM |  | > 100 µM |  | 34.6 µM |  | 34.1 µM |  | 42.7 µM |  | 33.7 µM
Oc1c(CN2CCCC2)cc(COCc2ccc(Br)cc2)c2cccnc12 | 1.49 µM | 14.4 µM | 0.355 µM | 1.43 µM | 1.02 µM | 15.4 µM | 0.969 µM | 3.33 µM | 1.19 µM | 3.98 µM | 0.594 µM | 2.84 µM | 1.47 µM | 3.97 µM | 0.37 µM | 1.54 µM | 1.34 µM | 3.02 µM | 0.343 µM | 1.72 µM
CN1CCN(c2ccc3nc(-c4c(N)c5c(F)cccc5[nH]c4=O)[nH]c3c2)CC1 | 0.974 µM and 0.535 µM and 1.08 µM | 2.34 µM and 1.85 µM and 2.61 µM | 0.86 µM and 0.314 µM and 1.2 µM | 2.8 µM and 2.36 µM and 3.12 µM | 1.9 µM and > 1.97 µM and 2.56 µM | 8.89 µM and > 10 µM and 12.6 µM | 1.53 µM and 0.9 µM and 2.05 µM | 6.44 µM and > 3.6 µM and 11.1 µM | 2.41 µM and 1.09 µM and 3.14 µM | 8.1 µM and > 6.69 µM and 8.95 µM | 0.379 µM and 0.487 µM and 0.515 µM |  | 0.419 µM and 0.4 µM and 0.936 µM | 5.41 µM and > 2.24 µM and 22.8 µM | 0.478 µM and 0.41 µM and 0.769 µM | 1.86 µM and 1.48 µM and 2.14 µM | 1.69 µM and 0.83 µM and 2.54 µM | 3.26 µM and 2.39 µM and 8.32 µM | 1.19 µM and 1.28 µM and 2.13 µM | 6.05 µM and > 2.9 µM and 10 µM
Cc1ccc(C)c(NC(=O)NCc2ccc(Cl)cc2)c1 |  | > 100 µM |  | > 100 µM |  | > 58.5 µM |  | > 100 µM |  | > 100 µM |  | 52.7 µM |  | > 100 µM |  | > 100 µM |  | > 100 µM |  | > 100 µM
COC(=O)[C@]12CC[C@@H](C)[C@H](C)[C@@H]1C1=CC[C@@H]3[C@@]4(C)C(C=O)=C[C@@](C)(COC(=O)c5ccco5)[C@@H]4C(=O)C[C@@]3(C)[C@]1(C)CC2 | 0.193 µM | 4.33 µM | 3.58 µM | 15.4 µM | 6.15 µM | > 100 µM | 4.33 µM | > 100 µM | 3.99 µM | > 100 µM | 43.1 µM | > 100 µM | 0.5 µM | 2.78 µM | 4.42 µM | 31.2 µM | 0.148 µM | 0.666 µM | 0.232 µM | 2.34 µM
C[C@@H]1CC[C@@H]2[C@@H]1[C@H](OC(=O)/C=C/c1ccccc1)[C@]1(C3CCCCC3)C[C@@H](NC(=O)CO)[C@@]2(C)O1 | 17.2 µM | 32.4 µM | 21.5 µM | 40.4 µM | 17.6 µM | 32.3 µM | 18.9 µM | 38.4 µM | 14.9 µM | 28.4 µM | 17.9 µM | 32.1 µM | 16.8 µM | 32.8 µM | 17.8 µM | 32.5 µM | 25.2 µM | 42.1 µM | 16.2 µM | 30.3 µM
O=C(Nc1ccc(Oc2ccc3nc(NC(=O)c4ccccc4)[nH]c3c2)cc1)Nc1cc(C(F)(F)F)ccc1F | 0.709 µM | 2.94 µM | 0.738 µM | 3.29 µM | 5.56 µM | > 25 µM | 0.93 µM | 13 µM | 0.71 µM | 4.49 µM | 4.38 µM | 16.5 µM | 0.832 µM | 3.63 µM | 0.97 µM | > 10.8 µM | 1.39 µM | 11.3 µM | 0.818 µM | 4.01 µM
CCOC(=O)/C=C/c1cc2cc(-c3csc4ccccc34)ccc2[nH]1 | 1.91 µM | 4.73 µM | 2.43 µM | 6.57 µM | 16 µM | 33.5 µM | 18.3 µM | 47.8 µM | 4.11 µM | 16 µM | 15.2 µM | 28.7 µM | 4.92 µM | 17.3 µM | 5 µM | 18.9 µM | 12.6 µM | 25.2 µM | 6.76 µM | 19.6 µM
CNC(=O)c1ccc2cc(C3(O)CCn4cncc43)ccc2c1 (stereo not drawn) | > 100 µM | > 100 µM | > 73.5 µM | > 100 µM | > 100 µM | > 100 µM | > 100 µM | > 100 µM | > 100 µM | > 100 µM | > 100 µM | > 100 µM | > 100 µM | > 100 µM | > 100 µM | > 100 µM | > 100 µM | > 100 µM | > 100 µM | > 100 µM
O=P(NC12CC3CC(CC(C3)C1)C2)(N1CC1)N1CC1 |  | > 100 µM |  | 98.9 µM |  | > 100 µM |  | > 63.8 µM |  | > 100 µM |  | > 100 µM |  | > 100 µM |  | > 100 µM |  | > 100 µM |  | > 72.2 µM
CN(N=O)C(=O)N[C@@H](C=O)[C@@H](O)[C@H](O)[C@H](O)CO |  | > 750 µM | > 750 µM | > 750 µM | > 750 µM | > 750 µM | > 750 µM | > 750 µM | > 750 µM | 621 µM and > 750 µM | > 750 µM | 622 µM and > 750 µM | > 750 µM | > 750 µM | 722 µM and > 750 µM | > 750 µM | > 750 µM | > 750 µM | > 750 µM | > 750 µM
CN(C)c1ccc(/C=C2\N=C(c3ccc([N+](=O)[O-])cc3)OC2=O)cc1 |  | > 100 µM |  | 87.9 µM |  | > 100 µM |  | > 100 µM |  | > 100 µM |  | > 100 µM |  | > 100 µM |  | 61.2 µM |  | > 100 µM |  | > 100 µM
CCOC(=O)C1=C(C)NC2SC(=O)/C(=C\c3ccccc3O)N2C1c1ccccc1 (stereo not drawn) | 19.6 µM | 62.5 µM | 19.6 µM | 54.4 µM | 31.5 µM | > 100 µM | 24.5 µM | 53.5 µM | 27.2 µM | > 100 µM | 52.8 µM | > 100 µM | 22.2 µM | 59.3 µM | 18.4 µM | 34 µM | 42.4 µM | > 100 µM | 18 µM | 41.8 µM
